The source of these data is US20230118114A1, “BIOERODIBLE LIFE SUPPORT HYDROGELS FOR THE DELIVERY OF VIABLE MITOCHONDRIA” (University of Kentucky Research Foundation, priority 2021, published 2023).

“Also recorded” adds a separate entry of the source.

One assay deals with spinal cord injury (SCI). The following applies: cited from earlier work.
For assay [1], the system named is mitochondria isolated from spinal cord injury site. In words: Mitochondrial respiration (OCR) of spinal cord mitochondria after contusion SCI. The assay is classed as in vivo, rats. The following applies: 24 hours after SCI; MitoTxp 100 µg intraspinal within 3 hr; ALC 300 mg/kg i.p. at 3 hours plus booster 6 hours later. On the procedure: Bars are Mean ± SD, n=5-6/group. *p<0.05 compared with sham; # p<0.05 versus vehicle.
Briefly, rats were contused at L1/L2 spinal level with 250 kDyn force using Infinite Horizon Impactor; Sham group received only T12 laminectomy. Designated injured rats were injected either intraspinally with healthy mitochondria (100 µg, MitoTxp) isolated from syngeneic rat soleus muscle within 3 hr and/or injected with ALC (300 mg/kg, i.p.) at 3 hours followed by a booster 6 hours later. Then, after 24 hours, mitochondria were isolated from spinal cord injury site and assessed for respiration (OCR).

The test system is the same in assay [2]. The conditions noted are these: once daily ALC administered acutely after contusion SCI; cited from earlier work.

In the case of N-acetylcysteine amide [NACA], the “long-term functional recovery and tissue sparing” value in the assay on spinal cord injury (SCI) (continuous NACA 150 and 300 mg/kg/day up to 7 days post-injury) was “significant tissue sparing and improved recovery of hindlimb function; also recorded: significantly increased long-term functional recovery and tissue sparing”.
On to `CC(=O)O[C@H](CC(=O)[O-])C[N+](C)(C)C` [ALC, acetyl-L-carnitine], for which the “States III & V.1 OCR” value in assay [1] was “insignificant trends”. The “long term hind limb locomotor function and tissue sparing” value in the assay with spinal cord injury (SCI) (continued daily ALC for three weeks after contusion SCI) was “significantly improves long term hind limb locomotor function and tissue sparing”. In addition, the hind limb function result in the assay with spinal cord injury (SCI) (injured rats, 3 weeks of daily ALC treatment, vs vehicle) is on record as “able to step consistently with weight support on their hind limbs”. Also, in the assay with spinal cord injury (SCI) (injured rats, 3 weeks of daily ALC treatment), the tissue sparing entry is “increased gray and white matter tissue sparing”. Besides, the mitochondrial respiration result in assay [2] is listed as “maintains mitochondrial respiration”.
